Experimental data: patent US8865623B2, “Herbicidally active cyclic diones and derivatives thereof, processes for their preparation, compositions, and method of controlling weeds” (Syngenta Limited, priority 2009, dated 2014)

Assays:
Type in all cases: in vivo
[1] = test system: Alopecurus myosuroides (ALOMY); test: Pre-emergence herbicidal activity, glasshouse pot test; settings: Alopecurus myosuroides, 312 h; Rate 250 g/ha; pre-emergence spray; evaluated after 13 days; read-out: Pre-emergence activity ALOMY (100=total damage to plant; 0=no damage to plant)
How it was run: (§1)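 Pot-grown plants in standard soil received a spray one day post-sowing (pre-emergence) or after eight days' growth (post-emergence). Scoring took place 13 days later on a 0–100 scale, 100 meaning total damage.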

[2] = test system: Avena fatua (AVEFA); test: as above; settings: Avena fatua, 312 h; Rate 250 g/ha; pre-emergence spray; evaluated after 13 days; read-out: Pre-emergence activity AVEFA (100=total damage to plant; 0=no damage to plant)
How it was run: as §1

[3] = test system: Echinochloa crus-galli (ECHCG); test: as above; settings: Echinochloa crus-galli, 312 h; Rate 250 g/ha; pre-emergence spray; evaluated after 13 days; read-out: Pre-emergence activity ECHCG (100=total damage to plant; 0=no damage to plant)
How it was run: as §1

[4] = test system: Lolium perenne (LOLPE); test: as above; settings: Lolium perenne, 312 h; Rate 250 g/ha; pre-emergence spray; evaluated after 13 days; read-out: Pre-emergence activity LOLPE (100=total damage to plant; 0=no damage to plant)
How it was run: as §1

[5] = test system: Alopecurus myosuroides (ALOMY); test: Post-emergence herbicidal activity, glasshouse pot test; settings: Alopecurus myosuroides, 312 h, rate 250 g/ha, evaluated after 13 days, glasshouse, read-out: Post-emergence activity ALOMY (100=total damage to plant; 0=no damage to plant)
How it was run: as §1

[6] = test system: Avena fatua (AVEFA); test: as above; settings: Avena fatua, 312 h, rate 250 g/ha, evaluated after 13 days, glasshouse, read-out: Post-emergence activity AVEFA (100=total damage to plant; 0=no damage to plant)
How it was run: as §1

[7] = test system: Echinochloa crus-galli (ECHCG); test: as above; settings: Echinochloa crus-galli, 312 h, rate 250 g/ha, evaluated after 13 days, glasshouse, read-out: Post-emergence activity ECHCG (100=total damage to plant; 0=no damage to plant)
How it was run: as §1

[8] = test system: Lolium perenne (LOLPE); test: as above; settings: Lolium perenne, 312 h, rate 250 g/ha, evaluated after 13 days, glasshouse, read-out: Post-emergence activity LOLPE (100=total damage to plant; 0=no damage to plant)
How it was run: as §1

Row | Structure (SMILES) | pest or weed control at 250 g/ha [1] [%] | pest or weed control at 250 g/ha [2] [%] | pest or weed control at 250 g/ha [3] [%] | pest or weed control at 250 g/ha [4] [%] | pest or weed control at 250 g/ha [5] [%] | pest or weed control at 250 g/ha [6] [%] | pest or weed control at 250 g/ha [7] [%] | pest or weed control at 250 g/ha [8] [%]
1 | CCc1ccc(Oc2ncc(C)cn2)cc1C1=C(O)C(C)(C)OC(C)(C)C1=O [Example A-123] | 30 | 0 | 30 | 20 | 20 | 10 | 50 | 30
2 | CCc1ccc(Oc2ccc(OC)nn2)cc1C1=C(O)C(C)(C)OC(C)(C)C1=O [Example A-124] | 0 | 0 | 10 | 0 | 10 | 0 | 40 | 10
3 | CCc1ccc(Oc2ncnc3sccc23)cc1C1=C(O)C(C)(C)OC(C)(C)C1=O [Example A-126] | 0 | 0 | 10 | 0 | 10 | 20 | 50 | 10
4 | CCc1ccc(Oc2nc(OC)cc(OC)n2)cc1C1=C(O)C(C)(C)OC(C)(C)C1=O [Example A-127] | 0 | 0 | 0 | 0 | 0 | 0 | 30 | 10
5 | CCCc1cnc(Oc2ccc(CC)c(C3=C(O)C(C)(C)OC(C)(C)C3=O)c2)nc1 [Example A-128] | 20 | 10 | 50 | 60 | 50 | 30 | 70 | 40
6 | CCc1ccc(Oc2cc(Cl)c(Cl)nn2)cc1C1=C(O)C(C)(C)OC(C)(C)C1=O [Example A-129] | 10 | 0 | 30 | 10 | 10 | 10 | 30 | 10
7 | CCc1ccc(Oc2cc(Cl)nc(C)n2)cc1C1=C(O)C(C)(C)OC(C)(C)C1=O [Example A-130] | 0 | 0 | 30 | 0 | 10 | 0 | 40 | 10
8 | CCc1ccc(Oc2ccc3nc(Cl)cn3n2)cc1C1=C(O)C(C)(C)OC(C)(C)C1=O [Example A-131] | 30 | 40 | 90 | 60 | 70 | 80 | 90 | 70
9 | CCc1ccc(Oc2ncc(C)nc2C)cc1C1=C(O)C(C)(C)OC(C)(C)C1=O [Example A-135] | 10 | 0 | 30 | 10 | 30 | 20 | 50 | 30
10 | CCc1ccc(Oc2nc(F)c(Cl)cc2Cl)cc1C1=C(O)C(C)(C)OC(C)(C)C1=O [Example A-140] | 20 | 0 | 50 | 50 | 70 | 70 | 100 | 70
11 | CCc1ccc(Oc2nc(Cl)c(Cl)cc2Cl)cc1C1=C(O)C(C)(C)OC(C)(C)C1=O [Example A-142] | 20 | 0 | 40 | 10 | 20 | 20 | 70 | 10
